{
  "source": "patent US11311598B2",
  "about": "“Peptides and analogs for use in the treatment of oral mucositis” (Soligenix, Inc., priority 2013, dated 2022)",
  "key": {"male C3H/HeN mice": {"test_system": "male C3H/HeN mice", "experiment": "chemotherapy-induced oral and gastrointestinal mucositis in the mouse", "format": "in vivo", "settings": "25 mg/kg IV on Days −1 and 2, scores evaluated for 4 days after induction", "description": "In each study, 5-fluorouracil (60 mg/kg IP) was administered to male C3H/HeN mice on Days −4 and −2. […] […] Body weights were also measured daily and colitis severity was determined by video endoscopy on Days 4 and 7. In the first study, RIVPA (SEQ ID NO. 5) (25 mg/kg IV) was administered either once on Day −4 immediately prior to chemotherapy, twice on Days −4 and −2 immediately after chemotherapy or 3 times on Days −1, 2 and 5. […] In the second study, RIVPA (SEQ ID NO. 5) (25 mg/kg IV) was administered on either Days −1, 2 and 5, Days −1, 1 and 3 or Days 0, 2, and 4. […] In the third study, RIVPA (SEQ ID NO. 5) (25 or 5 mg/kg IV, as indicated) was administered either on Days −1, 2 and 5 or on Days 1 and 3. […] Statistical significance was assessed for oral mucositis using a chi-square analysis and for body weight area under the curve (AUC) with an ANOVA on ranks. […] Treatment with R(tBg)V1KR(tBg)V2 (SEQ ID NO. 91) and RIV(mp2)A-NH2 (SEQ ID NO. 92) was administered on Days −1 and 2 at a dose of 25 mg/kg IV."}, "MRSA [1]": {"test_system": "MRSA", "experiment": "MRSA bacteremia model (other IDR peptides)", "format": "in vivo", "settings": "5 mg/kg administered 4 hours prior to infection"}, "MRSA [2]": {"test_system": "MRSA", "experiment": "MRSA skin infection model", "format": "in vivo, mouse", "settings": "48 or 96 h after bacterial challenge", "description": "Infection was initiated 1 day after the hair was removed from the dorsal area of each mouse. RIVPA (SEQ ID NO. 5) (25 mg/kg IV or 100 mg/kg SC) was administered 4 h prior to infection and at various times after infection as indicated. Oral linezolid was used as the comparator and was administered daily at 12.5 mg/kg. On Day 0 (at −1 h) each mouse was anesthetized using isoflurane and the shaved dorsal skin was damaged by 7 consecutive applications and removals of surgical tape. This lesion was then immediately infected by topical administration of 10 μL of the bacterial suspension, delivering a total challenge of 7.6 login cfu per mouse. Efficacy was evaluated by measurement of the bacterial burden in punch biopsies of the skin at 48 h (FIG. 14—panel A) and 96 h (FIG. 14—panel B) following the bacterial challenge and by macroscopic assessment of digital images of the skin by a blinded, board-certified pathologist at 48 h (FIG. 14—panel C) and 96 h (FIG. 14—panel D) after infection. […] The mean bacterial burden for each therapeutic group was statistically compared to that of its time-matched saline control through use of a t-test comparison of means, assuming unequal variances, performed on Excel. Comparisons which returned a p value […] were considered statistically different."}},
  "note": "“Also recorded” adds a separate entry of the source. *1 amine or outer side, *2 acyl side, *3 side chain or, on linkers, in order; H or OH if unused. Where no end group is shown, it is not given here. [ ]: non-standard residue; d: D form. mp2 = 4-amino-1-methyl-1H-pyrrole-2-carboxylic acid, Cn1cc(N[*:1])cc1C(=O)[*:2]",
  "data": [
    {"compound": "R(tBg)V1KR(tBg)V2 [R(tBg)V1KR(tBg)V2 (SEQ ID NO. 91)]", "values": [
      {"measurement": "severity of oral mucositis (mucositis scores)", "setting": "male C3H/HeN mice", "value": "reduces; also recorded: demonstrated efficacy"},
      {"measurement": "survival", "setting": "MRSA [1]", "value": "improve survival; also recorded: enhances survival"}
    ]},
    {"compound": "CC(=O)NC[C@H]1CN(c2ccc(N3CCOCC3)c(F)c2)C(=O)O1", "note": "[linezolid, reference compound]", "values": [
      {"measurement": "bacterial load in skin punch biopsies relative to control", "setting": "MRSA [2]", "value": "neither linezolid nor RIVPA (SEQ ID NO. 5) reduced bacterial load"}
    ]},
    {"compound": "RIV(mp2)A-NH2 (RIV[mp2]A-NH2; N-terminus assumed; SMILES CC[C@H](C)[C@H](NC(=O)[C@@H](N)CCCNC(=N)N)C(=O)N[C@H](C(=O)Nc1cc(C(=O)N[C@@H](C)C(N)=O)n(C)c1)C(C)C) [RIV(mp2)A-NH2 (SEQ ID NO. 92), mp2 = 4-Amino-1-methyl-1H-pyrrole-2-carboxylic acid]", "values": [
      {"measurement": "severity of oral mucositis (mucositis scores)", "setting": "male C3H/HeN mice", "value": "reduces"},
      {"measurement": "severity of oral mucositis (mucositis scores)", "setting": "male C3H/HeN mice; listed as 92", "value": "demonstrated efficacy"},
      {"measurement": "survival", "setting": "MRSA [1]", "value": "enhances survival"}
    ]},
    {"compound": "RIVPAY* (RIVPA[dY]; also: C-terminal modification (*)) [RIVPAY* (SEQ ID NO. 90)]", "values": [
      {"measurement": "survival", "setting": "MRSA [1]", "value": "improve survival"}
    ]}
  ]
}
